Data taken from patent US7745492B2, “Carboxamido opioid compounds” (Janssen Pharmaceutical, priority 2004, dated 2010).

What was measured:
male Sprague-Dawley rats = assay: Rat CFA radiant heat model of inflammatory pain; type: in vivo; conditions: dosed orally 24 h after intraplantar CFA
Protocol: Rat CFA Radiant Heat Model of Inflammatory Pain
Intraplantar injection of Complete Freund's Adjuvant (CFA) in rodents results in a strong, long-lasting inflammatory reaction, characterized by a chronic and pronounced hyperalgesia to both thermal and mechanical stimuli. These effects peak between 24-72 h following injection, and can last for several days to a few weeks. To assess the ability of compounds to reverse thermal hyperalgesia, male Sprague-Dawley rats (200-350 g) were given an intraplantar injection of CFA (1:1 CFA:saline, 100 μL) into their left hindpaw. Following a 24-h incubation period, response latencies on the Radiant Heat Paw Stimulator (RH) were obtained and compared to baseline (pre-CFA) latencies. The RH device automatically registered lifting of the paw from the surface of the glass. […] Following the post CFA latency assessment, rats were dosed orally (2.5 mL/kg) with test compound or vehicle (hydroxypropylmethylcellulose, HPMC). Percent reversal of hyperalgesia was calculated for each animal as (Treatment Response−postCFA Response)/(preCFA Response−postCFA Response)×100. Therefore, a return to normal pre-CFA thresholds was defined as 100% efficacy, whereas no change from post-CFA thresholds was 0% efficacy. Average % reversal of hyperalgesia was then calculated for each treatment group (n=6-8 rats/group). […]

[1] = Glucuronidation in human liver microsomes; type: in vitro ADME; conditions: in vitro
[2] = Metabolic stability in mouse liver microsomes; type: in vitro ADME; conditions: 10 min incubation
Protocol: (§1) The metabolic stability of Compound 3 was investigated using several approaches. The compound was incubated with liver microsomes from mouse, rat, dog and human and the percent of compound remaining after ten min quantified. The compound was metabolically robust in all species tested.

[3] = biological target: recombinant human P450 2D6 (Homo sapiens, UniProt P10635); assay: Recombinant human P450 isoform inhibition, 2D6; type: in vitro ADME
Protocol: In a study using recombinant human P450 isoforms, the compound was only a weak inhibitor (IC50>10 μM) of all isoforms tested, 3A4, 2D6, 2C9, 2C19, and 1A2.

[4] = tested on: spinal nerve ligated rats; assay: Investigation of tolerance development to antiallodynic effect; type: in vivo, rat; conditions: dosing for five days, evaluated days one and five
Protocol: Investigation of Tolerance Development
The development of tolerance to the analgesic effect of mu opioid compounds is well known. The development of tolerance to the antiallodynic effect of the Compound 3 was investigated by administering the compound to spinal nerve ligated rats for five days. The antiallodynic effect of the compound was evaluated on days one and five.

[5] = Metabolic stability in human liver microsomes; type: in vitro ADME
Protocol: as §1
In a follow up study in human liver microsomes, the percent of compound remaining was determined at several incubation times (30, 60 and 90 min). The in vitro half life of the compound was determined to be >100 minutes.

Male Sprague Dawley rats = assay: Spinal nerve ligation (SNL) model of neuropathic pain, mechanical allodynia (Von Frey); type: in vivo; conditions: rat, at 2 h
Protocol: Spinal Nerve Ligation (SNL) Model of Neuropathic Pain
Male Sprague Dawley rats weighing 145 to 165 g (approximately 6 weeks of age) were obtained from Harlan (Indianapolis, Ind.). Food and water were provided ad lib and a 12 h light and 12 h dark cycle were maintained. Animals were group housed under specific pathogen-free, barrier maintained environment and were allowed to acclimate for no less than 1 week. Following surgery, animals were housed individually in solid bottom polycarbonate cages with automatic watering devices at 22° C. and a relative humidity of 60%. All animals received Harland Tekland Diet # 8604.
Anesthesia was induced using isoflurane (IsoVet™) inhalant in an induction chamber (3-5% in 2 L/min of O2). Once recumbent, the animal was removed and placed into a nose cone which delivered inhalant isoflurane (0.5-2.5% at 2 L/min Of O2). The dorsal pelvic area was shaved and scrubbed aseptically with chlorhexidine scrub, 70% alcohol, and a 5% chlorhexidine solution. The animal was held in ventral recumbency on a heating pad, and the surgical procedure described by Kim and Chung (1992) was performed. The left paraspinal muscles were separated from the spinous processes at the level of Lumbar 4 to Sacral 2 (L4-S2). Once the musculature was retracted, the L6 transverse process was removed using a small rongeur. L4 and L5 spinal nerves could then be visualized. L5 was then isolated and ligated using 6-0 silk suture material. Warm saline and a dose of long-acting antibiotic was administered immediately post-op before recovery form anesthesia.
At least one week following surgery, animals were individually placed in a Lucite testing chamber with a wire mesh bottom. Mechanical (tactile) allodynia was measured by recording the pressure at which the affected paw was withdrawn from graded stimuli (Von Frey hairs ranging from 4.0 to 148.1 mN equivalent to 0.25 to 15 g of pressure) applied to the plantar surface of the paw (between the footpads) according to the procedure of Chaplan et. al (1994) in order to calculate paw withdrawal threshold (PWT). Normal rats can withstand at least 15 g of pressure without responding. SNL rats can respond to as little as 0.25 g of pressure. Rats were included in this study only if their PWT was below 4.0 g.
Animals were used for compound testing between 2 weeks and 8 weeks post-operatively. Animals were always pre-tested for baseline withdrawal threshold on the day of testing. Following a 16 h fast, PWT was evaluated at 30 min, 1 h, 2 h, and 4 h post-dosing. Dose-response studies were conducted at the time of peak effect. Studies were conducted in a blinded manner.
Data were normalized and results were presented as % MPE (maximum possible effect) of the drug.

Chain of recombinant human P450 2D6 (P10635 whole entry, canonical isoform): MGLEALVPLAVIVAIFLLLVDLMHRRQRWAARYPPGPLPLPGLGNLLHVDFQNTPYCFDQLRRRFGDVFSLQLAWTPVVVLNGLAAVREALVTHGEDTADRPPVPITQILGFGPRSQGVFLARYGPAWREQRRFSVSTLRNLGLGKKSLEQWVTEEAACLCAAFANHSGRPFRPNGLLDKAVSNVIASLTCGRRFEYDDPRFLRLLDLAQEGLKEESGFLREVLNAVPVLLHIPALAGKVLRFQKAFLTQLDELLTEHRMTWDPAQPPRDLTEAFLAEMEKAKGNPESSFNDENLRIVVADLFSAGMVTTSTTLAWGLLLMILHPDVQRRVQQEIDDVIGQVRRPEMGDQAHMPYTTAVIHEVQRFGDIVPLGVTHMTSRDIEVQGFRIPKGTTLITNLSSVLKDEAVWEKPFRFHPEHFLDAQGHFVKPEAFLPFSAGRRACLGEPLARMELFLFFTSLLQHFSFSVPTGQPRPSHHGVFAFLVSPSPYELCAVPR

With `CN(C)C[C@H]1CCCC[C@]1(O)c1cccc(C(N)=O)c1` (single isomer, unassigned) [Cpd 3] the “Antihyperalgesic effect (reversal of thermal hyperalgesia)” value (male Sprague-Dawley rats) was “antihyperalgesic”, the Glucuronidation [1] was “no glucuronidation of the compound was detected” and the “% remaining after 10 min” value [2] was 88.2%. For the same molecule, the IC50 [3] was over 10 µM, the “Development of tolerance to the antiallodynic effect” value [4] was “did not diminish the antiallodynic effect” and the “% remaining after 10 min” value ([5]; 10 min incubation) was 101.4%. The “Metabolism in human liver microsomes (result in words)” value ([5]; 10 min incubation) was “no metabolism of the compound was observed”, the half-life ([5]; incubation times 30, 60 and 90 min, read-out: In vitro half life) was over 1.67 h and the ED50 (Male Sprague Dawley rats) was 17 mg/kg.
